We go through 87 compounds from a melting point compilation (Tetko et al.; mined from patent text by program, amines drawn as free bases though some values may be those of a salt).

`C=CCc1cc2c(c(CC=C)c1O)CCC(=O)N2CC=C(C)C` registered a melting point of 133 to 135 °C.
Consider `Nc1ccc(N2CCN(C(C(=O)NCC(F)(F)F)c3ccccc3)CC2)cc1` (configuration not stated), for which the melting point amounted to 136 °C.
Take `COCCOc1ccc(CCNC(=O)C=Cc2ccc(OC)cc2OC)cc1S(N)(=O)=O`: the melting point is 175 to 178 °C.
With `CCCCCCCCCCC1SCCCN1C(=S)Nc1cccc(Br)c1` (configuration not stated) the figure was 73 to 74 °C; with `CN(N=C(Cl)c1c(F)cccc1F)S(=O)(=O)c1ccccc1`, 81.5 to 83 °C; with `COc1ccc(C(=O)Cc2ccccc2)cc1`, 68 to 69 °C.
As to `OC(CCCCCOCc1ccccc1)c1cccc(OCc2ccc3ccccc3n2)c1` (configuration not stated), the melting point lay in the range of 86 to 89 °C.
`CN1C(=O)C2C3C=CC(CC3)C2(c2ccc(Cl)c(Cl)c2)C1=O` (configuration not stated) came in with a melting point of 125 to 128 °C.
For `Nc1nc2cc(-c3cccnc3)ccc2c2c1nc(CO)n2CC1CCOCC1`, the melting point fell in the range of 260 to 262 °C.
As to `CCCCCCCCNc1ccc2c(C)nc(CC3OC(CO)C(O)C3O)n2n1` (configuration not stated), the melting point was in the range of 105 to 106 °C.
`CC1(C)OC(c2ccc(Cl)cc2Cl)C(Cn2cncn2)(c2ccc(Cl)cc2)O1` (configuration not stated) displayed a melting point of 141 to 142 °C.
For `COc1ccc(-c2ccnc3c(C(=O)c4cccs4)cnn23)cc1NC(=O)c1ccccc1`, the melting point was in the range of 201 to 203 °C.
`COc1cc(CCC(=O)O)ccc1OCc1oc(-c2ccc(C(F)(F)F)cc2)nc1C` displayed a melting point of 162 to 163 °C.
Compound `CCn1ncc2c(NCc3cccc(OC)c3)c3ccccc3nc21` displayed a melting point of 260 to 263 °C.
The same measure for `CN1C(=O)C(c2ccc(OC(F)F)cc2)(c2cccc(OCCC=C(F)F)c2)N=C1N` (configuration not stated): 127 to 128 °C.
The same measure for `CCOC(=O)N(C)n1cccc1C(=O)c1ccccc1`: 50 to 52 °C; for `COC(=O)C(CC(=O)c1ccc(Oc2ccccc2)cc1)SC(C)=O` (configuration not stated): 59 to 61 °C.
For the compound `COc1ccc(Nc2nccc3ccn(S(=O)(=O)c4ccc(OC)cc4)c23)cc1`, the melting point was in the range of 156 to 158 °C.
For the compound `COc1ccc2c(c1)C(=O)C1(O)c3ccc(C(C)C)cc3OC21O` (configuration not stated), the melting point was in the range of 98 to 102 °C.
Turning to `O=C(O)[C@@H]1CCCN1Cc1cc2cc3c(cc2c2cc(OCc4ccccc4)ccc12)OCO3`, the melting point lay in the range of 147 to 149 °C.
In turn, `O=C(N[C@H]1CC[C@H](CCN2CCC(c3cccc4c3CCO4)CC2)CC1)c1ccc(-n2cccc2)cc1` displayed a melting point of 228 °C.
As for `CNc1ncc2c(-c3cccc(Cl)c3)cc(-c3cccc(C(=O)O)c3)c(OC)c2n1`, the melting point was 270 °C.
For `Clc1nc2ccccc2nc1Nc1cccc2ccccc12`, the melting point was in the range of 157 to 159 °C.
`CCOC(=O)c1cc2c(Cl)cc(Cl)cc2[nH]1`: the melting point came out at 180 °C.
Take `CS(=O)(=O)c1ccc(-c2ccccc2N)cc1`: the melting point is 164 to 165 °C.
With `COC(=O)CCCc1cc2nc(Cl)ccc2n1S(=O)(=O)c1ccc(-c2ccccc2)cc1` the figure was 122 to 124 °C; with `CC(C)(C)NS(=O)(=O)c1ccccc1CCCl`, 64 to 65 °C.
`CCCn1c(=O)c2[nH]c(-c3ccoc3)nc2n(CCC)c1=O`: the melting point fell in the range of 244 to 245 °C.
`CCCCCC(NC(C)C)=C1C(=O)ON=C1C` gave a melting point of 99 to 101 °C.
`CCCC(=O)Nc1n[nH]c2c(F)c(C(F)(F)F)ccc12` had a melting point of 220 to 222 °C.
With `CCOC(=O)CCc1cc(Cl)ccc1C(=O)CCCNC(N)=O` the figure was 127 to 129 °C.
Turning to `C=C(F)CONC(=O)c1nc(-c2ccc(Cl)c(OC)c2F)cc(N)c1Cl`, the melting point fell in the range of 172 to 174 °C.
The compound `O=C(CN1CCCC1=O)N1CCC(C2c3ncc(Br)cc3CCc3cc(Cl)cc(Br)c32)CC1` (single isomer, unassigned; (+)) displayed a melting point of 118 to 119 °C.
In turn, `CC(Cc1c[nH]c2ccc(N)cc12)[N+](=O)[O-]` (configuration not stated) came in with a melting point of 120 to 122 °C.
`Cc1occc1C(=O)Nc1ccc(Cl)c(C=NN2CCOCC2)c1` gave a melting point of 121 to 123 °C.
With `Nc1ncc(Cc2csc3ccccc23)c(N)n1` the figure was 220 to 222 °C.
With `O=C1C=CC(OC2CCCCC2)N1` (configuration not stated) the figure was 65 to 66 °C; with `Nc1ccc2c(=O)n3c(nc2c1)C(=Cc1ccccc1Cl)CC3`, 275 to 280 °C.
With `Cc1noc(=O)n1C/C(F)=C\CCI` the figure was 58.1 to 58.6 °C.
`CCn1cc([C@]2(c3cccc(-c4cccnc4F)c3)N=C(N)N(C)C2=O)cc1C(C)=O`: the melting point was 109 to 111 °C.
The same measure for `O=C(O)COc1c(Cl)cc(Cl)cc1Cl`: 180 to 183 °C; for `O=[N+]([O-])c1ccc2c(C3=CCN(C[C@H](O)COc4cccc5[nH]ccc45)CC3)c[nH]c2c1`: 225 to 230 °C.
With `Cc1ccc(C(=O)Nc2ccc(N3CCN(C)CC3)c(C(F)(F)F)c2)cc1Nc1nccc(-c2cccnc2)n1` the figure was 214 to 217 °C; with `Cc1ccnc(-c2nc(=O)c3ccccc3s2)c1`, 200 °C.
For the compound `Oc1ccc2c(c1)nc(NC1CCN(CCNc3ncccn3)CC1)n2Cc1ccc(F)cc1`, the melting point was 194 °C.
For the compound `Cc1nc(NCCCOc2cccc(CN3CCCCC3)c2)sc1C`, the melting point is 123 to 125 °C.
`CN(C)c1ccccc1SCC(N)=NO` showed a melting point of 133 °C.
`ON=Cc1ccc(-c2ccc(O)cc2)c2occc12` showed a melting point of 216 to 217 °C.
For `CC(C)c1nc(N(C)S(C)(=O)=O)nc(-c2ccc(F)cc2)c1Br`, the melting point was 122 to 125 °C.
Consider `CCc1cc(-c2[nH]c3ccc(OC)cc3c2C)cc(CC)c1O`, for which the melting point was in the range of 122 to 124 °C.
`COc1cc2sc(C3=NNC(=O)CC3C)cc2cc1OCCCN1CCCCC1` (configuration not stated): the melting point was 198 to 200 °C.
`CN(C)C=Nc1ncc[nH]1` registered a melting point of 146 to 147 °C.
In turn, `COC(=O)C(C)(C)Cc1cc2ccc(O)cc2n1C` came in with a melting point of 125 to 126 °C.
With `CCCn1cc(Cc2ccc(C(=O)OC)cc2OC)c2cc(CCC(=O)O)ccc21` the figure was 109 to 111 °C; with `O=C1N(Cc2ncccc2C(F)(F)F)c2ccccc2C12COc1cc3c(cc12)OC(F)(F)O3` (configuration not stated), 200 to 201 °C.
With `N#Cc1cnc(Nc2ccc(F)cc2)nc1-c1ccc(N)nc1` the figure was 289 °C.
For the compound `CC(C)(C)c1ccc(OCC(=O)N2Cc3ccc(C(=O)NCc4cccnc4)n3Cc3ccccc32)cc1`, the melting point is 85 °C.
As to `CCOC(=O)N(c1ccccc1N=NC(NC(=O)CCl)(C(=O)OCC)C(=O)OCC)c1cccc(C)c1C`, the melting point lay within 120 to 122 °C.
For `O=C1CCCc2c1n(CCBr)c1ccc(Cl)cc21`, the melting point worked out at 121 °C.
`Nc1ncnc2c1c(-c1ccc(Oc3ccccc3)cc1)cn2[C@H]1CC[C@@H](N2CCCCC2)CC1` had a melting point of 192 to 195 °C.
With `CSc1nn(C(=O)NC(C)CCl)c(=O)n1N` (configuration not stated), the melting point turned out to be 136 °C.
With `CCCCCCCCCCCCCCCCCC(=O)NN(C(=O)CCCCCCCCCCCCCCCCC)C(=O)CCCCC(=O)NN`, the melting point was found to be 244 °C.
`CCCN(CC(=O)Nc1c(SC)nc(C)nc1N(CC)CC)c1ccccc1` came in with a melting point of 173 to 175 °C.
The compound `COC(=O)C(=O)c1cc(O)c(O)c(C#N)c1` had a melting point of 252 °C.
`Cc1cccc(NC(=O)NC2N=C(N3CCCCCC3)c3ccccc3N(C)C2=O)c1` (single isomer, unassigned; (+)): the melting point lay in the range of 172 to 175 °C.
As to `CCN(CC)C(=O)CCNC1(c2ccccc2Cl)C(=O)Nc2ccc(Cl)cc21` (configuration not stated), the melting point worked out at 185 °C.
As for `CC(=O)Nc1cccc(OC2CCNCC2)c1`, the melting point was 164 to 165 °C.
`CCCCNC(=O)Nc1cc(Cl)ccc1C(=O)NCC1CCN(C(c2ccccc2)c2ccccc2)CC1` showed a melting point of 195 to 197 °C.
With `N#Cc1c(N2CCCCC2)cc(-c2cccc3ccccc23)c2c1-c1ccccc1C2`, the melting point was 188 to 190 °C.
With `CC(C)n1nc(-c2nc(C(N)=O)c(N)nc2-c2cccs2)ccc1=O` the figure was 238 to 240 °C; with `O=c1c2ncn(C3OC(COC(c4ccccc4)(c4ccccc4)c4ccccc4)C(O)C3O)c2ncn1Cc1ccccc1` (configuration not stated), 208 to 209 °C; with `CCOc1cccc(CC(=O)O)c1OCCCc1cn(-c2ccc(Cl)cn2)nc1C(CC)CC`, 92 to 93 °C.
`CCCc1nc2c(N)nc(C)c(C)c2n1CCCS(C)(=O)=O` returned a melting point of 154 to 155 °C.
The same measure for `O=C(O)C1=Cc2c(ccc(Cl)c2-c2ccco2)OC1C(F)(F)F` (configuration not stated): 191 to 193 °C.
With `CS(=O)(=O)Nc1cc(NC(=O)CCl)c([N+](=O)[O-])cc1Oc1ccccc1` the figure was 194 to 195 °C; with `Cc1c(CN2CCc3[nH]c4ccccc4c3C2=O)ncn1C(c1ccccc1)(c1ccccc1)c1ccccc1`, 235 to 236 °C; with `CCCCc1nc2c(N)nc3ccc(OCCC4CCN(C(=O)C(C)C)CC4)cc3c2n1C`, 189 to 193 °C.
As to `CC(C)COc1ccc(C(=O)N/C(=C\c2ccc(OCC(F)F)cc2)C(=O)NCCO)cc1`, the melting point lay within 150 to 151 °C.
The same measure for `Oc1ccccc1Oc1ccc(-c2ccsc2)cc1O`: 114 to 116 °C; for `Nc1c(Cl)cc(C(O)CNCCCCCCOCCCCCCc2ccc3ccccc3n2)cc1Cl` (configuration not stated): 62.3 to 64.7 °C; for `Oc1ccccc1-c1ccccc1P(c1cc(C(F)(F)F)cc(C(F)(F)F)c1)c1cc(C(F)(F)F)cc(C(F)(F)F)c1`: 120 to 121 °C.
Take `COc1cccc(-c2ccnc3c(C#N)cnn23)c1`: the melting point lay in the range of 165 to 166 °C.
In the case of `CCCC(C)(c1ccc(O)cc1)c1ccc(O)cc1`, the melting point lay within 151 to 152 °C.
`CON(C)C(=O)c1sc(SC)c2c1CCc1sc(-c3ccccc3)nc1-2` registered a melting point of 157 to 158 °C.
For `O=C(NCCCCCn1cncn1)c1ccc(Cl)s1`, the melting point fell in the range of 79 to 81 °C.
The same measure for `C[C@H](Cc1ccc(-c2cc(F)cc(F)c2)cc1)c1ccccc1`: 49.8 to 51.3 °C.
With `Cc1ccc(-c2noc(-c3ccc4c(c3)C(C)(C)CCC4(C)C)n2)cc1` the figure was 106 to 109 °C.

For orientation: melting point means the temperature of the solid-liquid transition.
